Measurements reported in US20120270844A1, “METHODS FOR TREATING ALZHEIMER'S DISEASE” (aFRAXis, Inc., priority 2009, published 2012).

System: C57/black 6 mice temporal cortex slices
Assay: Slice electrophysiology assay (LTP, theta-burst stimulation)
Format: cell-based
Details: 1 μM compound; temporal cortex slices of C57/black 6 mice
Description: coronal cortical slices (400 μm) containing temporal cortex from 2- to 3-month-old C57-Black-6 mice male littermates (from Elevage Janvier, FRANCE) are prepared and allowed to recover in oxygenated (95% O2 and 5% CO2) warm (30° C.) artificial cerebrospinal fluid (ACSF) containing 124 mM NaCl, 5 mM KCl, 1.25 mM, NaH2PO4, 1 mM MgCl2, 2 mM CaCl2, 26 mM NaHCO3, and 10 mM dextrose.
a 10 mM DMSO stock solution is prepared for each test compound and 100 μL aliquots are stored at −20° C. On the day of experiment an aliquot is thawed and vortexed for fresh solutions preparation. The final concentration of DMSO is adjusted to 0.1% all solutions, including control ACSF solution. […]
a stimulus is applied every 30 s with an intensity settled at 40% of the maximal amplitude responses. […] Potentiation of synaptic transmission is then monitored for an additional 40 minutes period. […]
following a 10 minutes control recording period (to verify baseline stability), the compound is perfused for 20 minutes. Then, LTP is triggered and the fEPSP amplitude will be recorded for an additional 40 minutes period in the presence of compound.
fEPSP amplitudes are measured as the difference between the baseline (before stimulation) and the maximal peak amplitude. The fEPSP are normalized as a percent of the mean averaged amplitude recorded over a 10 min control period, before compound application. […]

## COc1cc(Nc2nccc(-c3ccc(NCCN)nc3)n2)cc(OC)c1OC [Compound A, N^1-(5-(2-(3,4,5-trimethoxyphenylamino)pyrimidin-4-yl)pyridin-2-yl)ethane-1,2-diamine]
  LTP compared to the baseline in a theta-burst stimulation protocol in the cortex: increased LTP

## CN1CCN(c2ccc(Nc3ncc4ccc(=O)n(C5CCCC5)c4n3)cc2)CC1 [Compound G, 8-cyclopentyl-2-(4-(4-methylpiperazin-1-yl)phenylamino)pyrido[2,3-d]pyrimidin-7(8H)-one]
  LTP compared to the baseline in a theta-burst stimulation protocol in the cortex: increased LTP
